{"source": "patent US20210403465A1", "about": "“QUINAZOLINYL-INDAZOLE DERIVATIVES AND THEIR USE AS INHIBITORS OF HUMAN IMMUNODEFICIENCY VIRUS REPLICATION” (ViiV HEALTHCARE UK (NO.5) LIMITED, priority 2018, published 2021)", "key": {"[1]": {"tested_on": "recombinant NL4-3 virus (Renilla luciferase) in MT-2 cells", "test": "HIV cell culture assay (antiviral activity, luciferase readout in MT-2 cells)", "type": "cell-based", "details": "NL43", "description": "HIV cell culture assay—MT-2 cells, 293T cells and the proviral DNA clone of NL4-3 virus were obtained from the NIH AIDS Research and Reference Reagent Program. MT-2 cells were propagated in RPMI 1640 media supplemented with 10% heat inactivated fetal bovine serum (FBS), […]. The 293T cells were propagated in DMEM media supplemented with 10% heat inactivated FBS, […]. A recombinant NL4-3 proviral clone, in which a section of the nef gene was replaced with the Renilla luciferase gene, was used to make the reference virus used in these studies. The recombinant virus was prepared through transfection of the recombinant NL4-3 proviral clone into 293T cells using Transit-293 Transfection Reagent from Mirus Bio LLC (Madison, Wis.). Supernatant was harvested after 2-3 days and the amount of virus present was titered in MT-2 cells using luciferase enzyme activity as a marker by measuring luciferase enzyme activity. Luciferase was quantitated using the EnduRen Live Cell Substrate from Promega (Madison, Wis.). Antiviral activities of compounds toward the recombinant virus were quantified by measuring luciferase activity in MT-2 cells infected for 4-5 days with the recombinant virus in the presence of serial dilutions of the compound.\nThe 50% effective concentration (EC50) was calculated by using the exponential form of the median effect equation where (Fa)=1/[1+(ED50/drug conc.)m] (Johnson V A, Byington R T. Infectivity Assay. In Techniques in HIV Research. ed. Aldovini A, Walker B D. 71-76. New York: Stockton Press. 1990). The 50% inhibitory concentration (EC50) was calculated by using the exponential form of the median effect equation where percent inhibition=1/[1+(EC50/drug concentration)m], where m is a parameter that reflects the slope of the concentration-response curve."}, "[2]": {"test": "Compound cytotoxicity, XTT-based colorimetric assay", "type": "cell-based", "details": "human; uninfected MT2 cells, day 4, XTT", "description": "Compound cytotoxicity and the corresponding CC50 values were determined using the same protocol as described in the antiviral assay except that uninfected cells were used. Cytotoxicity was assessed on day 4 in uninfected MT2 cells by using a XTT (2,3-bis[2-Methoxy-4-nitro-5-sulfophenyl]-2H-tetrazolium-5-carboxyanilide inner salt)-based colorimetric assay (Sigma-Aldrich, St Louis, Mo.)."}}, "data": [{"smiles": "Cn1nccc1CCOc1ccc2c(=O)n(-c3ccc(Cl)c4c(NS(C)(=O)=O)nn(C)c34)c([C@H](Cc3cc(F)cc(F)c3)NC(=O)Cn3nc(C(F)F)c4c3C(F)(F)[C@@H]3C[C@H]43)nc2c1", "note": "(atropisomer, axis not shown; (P)) [Example 7, N—((S)-1-((3P)-3-(4-chloro-1-methyl-3-(methylsulfonamido)-1H-indazol-7-yl)-7-(2-(1-methyl-1H-pyrazol-5-yl)ethoxy)-4-oxo-3,4-dihydroquinazolin-2-yl)-2-(3,5-difluorophenyl)ethyl)-2-((3bS,4aR)-3-(difluoromethyl)-5,5-difluoro-3b,4,4a,5-tetrahydro-1H-cyclopropa[3,4]cyclopenta[1,2-c]pyrazol-1-yl)acetamide]", "values": [{"measurement": "EC50", "setting": "[1]", "result": 0.074, "unit": "nM"}, {"measurement": "CC50 at 4 days", "setting": "[2]", "result": "> 1000", "unit": "nM"}]}, {"smiles": "Cn1nc(NS(C)(=O)=O)c2c(Cl)ccc(-n3c([C@H](Cc4cc(F)cc(F)c4)NC(=O)Cn4nc(C(F)F)c5c4C(F)(F)[C@@H]4C[C@H]54)nc4cc(OC5CCCC5)ccc4c3=O)c21", "note": "(atropisomer, axis not shown; (P)) [Example 9, N—((S)-1-((3P)-3-(4-chloro-1-methyl-3-(methylsulfonamido)-1H-indazol-7-yl)-7-(cyclopentyloxy)-4-oxo-3,4-dihydroquinazolin-2-yl)-2-(3,5-difluorophenyl)ethyl)-2-((3bS,4aR)-3-(difluoromethyl)-5,5-difluoro-3b,4,4a,5-tetrahydro-1H-cyclopropa[3,4]cyclopenta[1,2-c]pyrazol-1-yl)acetamide]", "values": [{"measurement": "EC50", "setting": "[1]", "result": 0.22, "unit": "nM"}, {"measurement": "CC50 at 4 days", "setting": "[2]", "result": "> 1000", "unit": "nM"}]}, {"smiles": "Cn1nc(NS(C)(=O)=O)c2c(Cl)ccc(-n3c([C@H](Cc4cc(F)cc(F)c4)NC(=O)Cn4nc(C(F)F)c5c4C(F)(F)[C@@H]4C[C@H]54)nc4cc(OC5CCOCC5)ccc4c3=O)c21", "note": "(atropisomer, axis not shown; (P)) [Example 10, N—((S)-1-((3P)-3-(4-chloro-1-methyl-3-(methylsulfonamido)-1H-indazol-7-yl)-4-oxo-7-((tetrahydro-2H-pyran-4-yl)oxy)-3,4-dihydroquinazolin-2-yl)-2-(3,5-difluorophenyl)ethyl)-2-((3bS,4aR)-3-(difluoromethyl)-5,5-difluoro-3b,4,4a,5-tetrahydro-1H-cyclopropa[3,4]cyclopenta[1,2-c]pyrazol-1-yl)acetamide]", "values": [{"measurement": "EC50", "setting": "[1]", "result": 0.036, "unit": "nM"}, {"measurement": "CC50 at 4 days", "setting": "[2]", "result": "> 1000", "unit": "nM"}]}, {"smiles": "Cn1nc(NS(C)(=O)=O)c2c(Cl)ccc(-n3c([C@H](Cc4cc(F)cc(F)c4)NC(=O)Cn4nc(C(F)F)c5c4C(F)(F)[C@@H]4C[C@H]54)nc4cc(OCc5cncnc5)ccc4c3=O)c21", "note": "(atropisomer, axis not shown; (P)) [Example 11, N—((S)-1-((3P)-3-(4-chloro-1-methyl-3-(methylsulfonamido)-1H-indazol-7-yl)-4-oxo-7-(pyrimidin-5-ylmethoxy)-3,4-dihydroquinazolin-2-yl)-2-(3,5-difluorophenyl)ethyl)-2-((3bS,4aR)-3-(difluoromethyl)-5,5-difluoro-3b,4,4a,5-tetrahydro-1H-cyclopropa[3,4]cyclopenta[1,2-c]pyrazol-1-yl)acetamide]", "values": [{"measurement": "EC50", "setting": "[1]", "result": 0.066, "unit": "nM"}, {"measurement": "CC50 at 4 days", "setting": "[2]", "result": "> 1000", "unit": "nM"}]}, {"smiles": "Cn1nc(NS(C)(=O)=O)c2c(Cl)ccc(-n3c([C@H](Cc4cc(F)cc(F)c4)NC(=O)Cn4nc(C(F)F)c5c4C(F)(F)[C@@H]4C[C@H]54)nc4cc(OCC5CCC5)ccc4c3=O)c21", "note": "(atropisomer, axis not shown; (P)) [Example 12, N—((S)-1-((3P)-3-(4-chloro-1-methyl-3-(methylsulfonamido)-1H-indazol-7-yl)-7-(cyclobutylmethoxy)-4-oxo-3,4-dihydroquinazolin-2-yl)-2-(3,5-difluorophenyl)ethyl)-2-((3bS,4aR)-3-(difluoromethyl)-5,5-difluoro-3b,4,4a,5-tetrahydro-1H-cyclopropa[3,4]cyclopenta[1,2-c]pyrazol-1-yl)acetamide]", "values": [{"measurement": "EC50", "setting": "[1]", "result": 0.15, "unit": "nM"}, {"measurement": "CC50 at 4 days", "setting": "[2]", "result": "> 1000", "unit": "nM"}]}]}
